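Following 48 hours of exposure in 96-well plates, responses at five concentrations were used to interpolate endpoints linearly. TGI is the concentration that stops growth completely.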
Experiments:
Test in all cases: growth of human tumour cells (NCI), 48 h
HCT-15 colon = tested on: HCT-15 colon
SK-MEL-5 melanoma = tested on: SK-MEL-5 melanoma
IGROV1 ovarian = tested on: IGROV1 ovarian
SN12C renal = tested on: SN12C renal
LOX IMVI melanoma = tested on: LOX IMVI melanoma
OVCAR-5 ovarian = tested on: OVCAR-5 ovarian
OVCAR-8 ovarian = tested on: OVCAR-8 ovarian
MOLT-4 leukemia = tested on: MOLT-4 leukemia
ACHN renal = tested on: ACHN renal
NCI-H226 lung = tested on: NCI-H226 lung
SK-MEL-2 melanoma = tested on: SK-MEL-2 melanoma
DMS 114 small cell lung = tested on: DMS 114 small cell lung
U251 CNS = tested on: U251 CNS
COLO 205 colon = tested on: COLO 205 colon
HCC-2998 colon = tested on: HCC-2998 colon
786-0 renal = tested on: 786-0 renal
EKVX NSCLC = tested on: EKVX NSCLC
KM12 colon = tested on: KM12 colon
A549 NSCLC = tested on: A549 NSCLC
RXF 393 renal = tested on: RXF 393 renal
NCI-H23 lung = tested on: NCI-H23 lung
NCI-H460 lung = tested on: NCI-H460 lung
OVCAR-3 ovarian = tested on: OVCAR-3 ovarian
MALME-3M melanoma = tested on: MALME-3M melanoma
SNB-19 CNS = tested on: SNB-19 CNS
K-562 leukemia = tested on: K-562 leukemia
UACC-62 melanoma = tested on: UACC-62 melanoma
SW-620 colon = tested on: SW-620 colon
SF-268 CNS = tested on: SF-268 CNS
SF-295 CNS = tested on: SF-295 CNS
UO-31 renal = tested on: UO-31 renal
M14 melanoma = tested on: M14 melanoma
KM20L2 colon = tested on: KM20L2 colon
OVCAR-4 ovarian = tested on: OVCAR-4 ovarian
SNB-75 CNS = tested on: SNB-75 CNS
TK-10 renal = tested on: TK-10 renal
HCT-116 colon = tested on: HCT-116 colon
RPMI-8226 leukemia = tested on: RPMI-8226 leukemia
NCI-H522 lung = tested on: NCI-H522 lung
HT29 colon = tested on: HT29 colon
M19-MEL melanoma = tested on: M19-MEL melanoma
SK-OV-3 ovarian = tested on: SK-OV-3 ovarian
CCRF-CEM leukemia = tested on: CCRF-CEM leukemia
SF-539 CNS = tested on: SF-539 CNS
A498 renal = tested on: A498 renal
CAKI-1 renal = tested on: CAKI-1 renal
HOP-62 NSCLC = tested on: HOP-62 NSCLC
UACC-257 melanoma = tested on: UACC-257 melanoma
SNB-78 CNS = tested on: SNB-78 CNS
SR leukemia = tested on: SR leukemia
HL-60(TB) leukemia = tested on: HL-60(TB) leukemia
SK-MEL-28 melanoma = tested on: SK-MEL-28 melanoma

`CN(C)C(=S)/N=c1\ss/c(=N\C(=S)N(C)C)n1C1CCCCC1` gave a TGI (HCT-15 colon) greater than 100 µM, a TGI (SK-MEL-5 melanoma) greater than 100 µM and a TGI (IGROV1 ovarian) greater than 100 µM. The TGI (SN12C renal) was greater than 100 µM, the TGI (LOX IMVI melanoma) was greater than 100 µM and the TGI (OVCAR-5 ovarian) was greater than 100 µM. The TGI (OVCAR-8 ovarian) was greater than 100 µM, the TGI (MOLT-4 leukemia) was greater than 100 µM and the TGI (ACHN renal) was greater than 100 µM. For the same compound, the TGI (NCI-H226 lung) was greater than 100 µM, the TGI (SK-MEL-2 melanoma) was greater than 100 µM and the TGI (DMS 114 small cell lung) was 24.2 µM. For the same compound, the TGI (U251 CNS) was greater than 100 µM, the TGI (COLO 205 colon) was greater than 100 µM and the TGI (HCC-2998 colon) was greater than 100 µM. It also gave a TGI (786-0 renal) greater than 100 µM, a TGI (EKVX NSCLC) greater than 100 µM and a TGI (KM12 colon) greater than 100 µM. For the same compound, the TGI (A549 NSCLC) was greater than 100 µM, the TGI (RXF 393 renal) was greater than 100 µM and the TGI (NCI-H23 lung) was greater than 100 µM. For the same compound, the TGI (NCI-H460 lung) was 15.5 µM, the TGI (OVCAR-3 ovarian) was greater than 100 µM and the TGI (MALME-3M melanoma) was greater than 100 µM. The TGI (SNB-19 CNS) was greater than 100 µM, the TGI (K-562 leukemia) was greater than 100 µM and the TGI (UACC-62 melanoma) was greater than 100 µM. For the same compound, the TGI (SW-620 colon) was greater than 100 µM, the TGI (SF-268 CNS) was greater than 100 µM and the TGI (SF-295 CNS) was greater than 100 µM. For the same compound, the TGI (UO-31 renal) was greater than 100 µM, the TGI (M14 melanoma) was greater than 100 µM and the TGI (KM20L2 colon) was greater than 100 µM. The TGI (OVCAR-4 ovarian) was 63 µM, the TGI (SNB-75 CNS) was greater than 100 µM and the TGI (TK-10 renal) was greater than 100 µM. The TGI (HCT-116 colon) was greater than 100 µM, the TGI (RPMI-8226 leukemia) was greater than 100 µM and the TGI (NCI-H522 lung) was greater than 100 µM. For the same compound, the TGI (HT29 colon) was 43.8 µM, the TGI (M19-MEL melanoma) was greater than 100 µM and the TGI (SK-OV-3 ovarian) was greater than 100 µM. For the same compound, the TGI (CCRF-CEM leukemia) was greater than 100 µM, the TGI (SF-539 CNS) was greater than 100 µM and the TGI (A498 renal) was greater than 100 µM. It also gave a TGI (CAKI-1 renal) greater than 100 µM, a TGI (HOP-62 NSCLC) greater than 100 µM and a TGI (UACC-257 melanoma) greater than 100 µM. It also gave a TGI (SNB-78 CNS) greater than 100 µM, a TGI (SR leukemia) greater than 100 µM and a TGI (HL-60(TB) leukemia) greater than 100 µM. For the same compound, the TGI (SK-MEL-28 melanoma) was greater than 100 µM.

Reference: PubChem BioAssay (NCI)
